In patent US20110152092A1, “Herbicidal compositions comprising flufenacet” (Bayer CropScience AG, priority 2009, published 2011):

Columns and labels:
STEME [1] = assay: Greenhouse trial, activity with different soil types; assay type: in vivo, Stellaria media; conditions: g of AS/ha: (A) 120, (B) 1200, (C) 90, mixture 120 + 1200 + 90
Method: (§1) In the standard design of the test, seeds of various broad-leaved weed and weed grass biotypes (origins) were sown in a 8-13 cm diameter pot filled with natural soil of a standard field soil (loamy silt; non-sterile) and covered with a covering soil layer of about 1 cm. The pots were then cultivated in a greenhouse (12-16 h of light, temperature day 20-22° C., night 15-18° C.) until the time of application. The pots were treated on a laboratory track sprayer with spray liquors comprising the compositions according to the invention, mixtures of the prior art or components used individually. Application of the active compounds or active compound combinations formulated as WG, WP, EC or otherwise was carried out at the appropriate growth stages of the plants. The application rate for the spray application was 100-600 l of water/ha. After the treatment, the plants were returned to the greenhouses.
(§2) About 3 weeks after the application, the soil action or/and foliar action was assessed visually according to a scale of 0-100% in comparison to an untreated comparative group: 0%=no noticeable effect compared to the untreated comparative group; 100%=full effect compared to the untreated comparative group.
(notes: the term “seeds” also includes vegetative propagation forms such as, for example, rhizome pieces; abbreviations used: h light=hours of illumination, g of AS/ha=gram of active substance per hectare, l/ha=liter per hectare, S=sensitive, R=resistant) • 1. Pre-emergence action against weeds: seeds of various broad-leaved weed and weed grass biotypes (origins) were sown in a 8-13 cm diameter pot filled with natural soil of a standard field soil (loamy silt; non-sterile) and covered with a covering soil layer of about 1 cm. The pots were then cultivated in a greenhouse (12-16 h of light, temperature day 20-22° C., night 15-18° C.) until the time of application. The pots were treated at the BBCH stage 00-10 of the seeds/plants on a laboratory track sprayer with spray liquors comprising the compositions according to the invention, mixtures or components used individually, as WG, WP, EC or other formulations. The application rate for the spray application was 100-600 l of water/ha. After the treatment, the plants were returned to the greenhouses and, when required, treated with fertilizer and watered. • 2. Post-emergence action against weeds: seeds of various broad-leaved weed and weed grass biotypes (origins) were sown in a 8-13 cm diameter pot filled with natural soil of a standard field soil (loamy silt; non-sterile) and covered with a covering soil layer of about 1 cm. The pots were then cultivated in a greenhouse (12-16 h of light, temperature day 20-22° C., night 15-18° C.) until the time of application. The pots were treated at various BBCH stages between 11-25 of the seeds/plants, i.e. generally between two to three weeks after the start of the cultivation, on a laboratory track sprayer with spray liquors comprising the compositions according to the invention, mixtures or components used individually, as WG, WP, EC or other formulations. The application rate for the spray application was 100-600 l of water/ha. After the treatment, the plants were returned to the greenhouses and, when required, treated with fertilizer and watered. • 3. Selective pre-emergence action: seeds of various crop species (origins) were sown in a 8-13 cm diameter pot filled with natural soil of a standard field soil (loamy silt; non-sterile) and covered with a covering soil layer of about 1 cm. The pots were then cultivated in a greenhouse (12-16 h of light, temperature day 20-22° C., night 15-18° C.) until the time of application. The pots were treated at the BBCH stage 00-10 of the seeds/plants on a laboratory track sprayer with spray liquors comprising the compositions according to the invention, mixtures or components used individually, as WG, WP, EC or other formulations. The application rate for the spray application was 100-600 l of water/ha. […]

STEME [2] = assay: Greenhouse trial, PO application, post-emergence action against weeds (test method 2); assay type: in vivo, Stellaria media; conditions: g of AS/ha: (A) 120, (B) 1200, (C) 120, mixture 120 + 1200 + 120
Method: as §1
as §2, with “group. […]” for “group.”

HORVS [3] = assay: Greenhouse trial, pre-sowing application 7 days prior to sowing (test method 5); assay type: in vivo, Hordeum vulgare, summer barley; conditions: g of AS/ha: (A) 90, (B) 1200, (C) 90, mixture 90 + 1200
Method: as §1
as §2, with “group. […]” for “group.”

AVEFA [4] = assay: Greenhouse trial, PE application with different irrigation variations (test method 6); assay type: in vivo, Avena fatua; conditions: g of AS/ha: (A) 120, (B) 1200, (C) 90, mixture 120 + 1200 + 90
Method: as §1
as §2, with “group. […]” for “group.”

TRZAW = assay: Greenhouse trial, PE application at different sowing depths (test method 9); assay type: in vivo, Triticum aestivum, winter wheat; conditions: g of AS/ha: (A) 120, (B) 1200, (C) 90, mixture 90 + 1200 + 90
Method: as §1, §2
(notes: the term “seeds” also includes vegetative propagation forms such as, for example, rhizome pieces; abbreviations used: h light=hours of illumination, g of AS/ha=gram of active substance per hectare, l/ha=liter per hectare, S=sensitive, R=resistant) • 1. Pre-emergence action against weeds: seeds of various broad-leaved weed and weed grass biotypes (origins) were sown in a 8-13 cm diameter pot filled with natural soil of a standard field soil (loamy silt; non-sterile) and covered with a covering soil layer of about 1 cm. The pots were then cultivated in a greenhouse (12-16 h of light, temperature day 20-22° C., night 15-18° C.) until the time of application. The pots were treated at the BBCH stage 00-10 of the seeds/plants on a laboratory track sprayer with spray liquors comprising the compositions according to the invention, mixtures or components used individually, as WG, WP, EC or other formulations. The application rate for the spray application was 100-600 l of water/ha. After the treatment, the plants were returned to the greenhouses and, when required, treated with fertilizer and watered. • 2. Post-emergence action against weeds: seeds of various broad-leaved weed and weed grass biotypes (origins) were sown in a 8-13 cm diameter pot filled with natural soil of a standard field soil (loamy silt; non-sterile) and covered with a covering soil layer of about 1 cm. The pots were then cultivated in a greenhouse (12-16 h of light, temperature day 20-22° C., night 15-18° C.) until the time of application. […]

AVEFA [5] = assay: Greenhouse trial, PE application, pre-emergence action against weeds (test method 1); assay type: in vivo, Avena fatua; conditions: g of AS/ha: (A) 90, (B) 1200, (C) 90, mixture 90 + 1200
Method: as §1
as §2, with “group. […]” for “group.”

MATCH = assay: Greenhouse trial, activity with different soil types; assay type: in vivo, Matricaria chamomilla; conditions: g of AS/ha: (A) 120, (B) 1200, (C) 90, mixture 120 + 1200 + 90
Method: as §1, §2
(notes: the term “seeds” also includes vegetative propagation forms such as, for example, rhizome pieces; abbreviations used: h light=hours of illumination, g of AS/ha=gram of active substance per hectare, l/ha=liter per hectare, S=sensitive, R=resistant) • 1. Pre-emergence action against weeds: seeds of various broad-leaved weed and weed grass biotypes (origins) were sown in a 8-13 cm diameter pot filled with natural soil of a standard field soil (loamy silt; non-sterile) and covered with a covering soil layer of about 1 cm. The pots were then cultivated in a greenhouse (12-16 h of light, temperature day 20-22° C., night 15-18° C.) until the time of application. The pots were treated at the BBCH stage 00-10 of the seeds/plants on a laboratory track sprayer with spray liquors comprising the compositions according to the invention, mixtures or components used individually, as WG, WP, EC or other formulations. The application rate for the spray application was 100-600 l of water/ha. After the treatment, the plants were returned to the greenhouses and, when required, treated with fertilizer and watered. • 2. Post-emergence action against weeds: seeds of various broad-leaved weed and weed grass biotypes (origins) were sown in a 8-13 cm diameter pot filled with natural soil of a standard field soil (loamy silt; non-sterile) and covered with a covering soil layer of about 1 cm. The pots were then cultivated in a greenhouse (12-16 h of light, temperature day 20-22° C., night 15-18° C.) until the time of application. The pots were treated at various BBCH stages between 11-25 of the seeds/plants, i.e. generally between two to three weeks after the start of the cultivation, on a laboratory track sprayer with spray liquors comprising the compositions according to the invention, mixtures or components used individually, as WG, WP, EC or other formulations. The application rate for the spray application was 100-600 l of water/ha. After the treatment, the plants were returned to the greenhouses and, when required, treated with fertilizer and watered. • 3. […]

HORVS [6] = assay: Greenhouse trial, PE application, selective pre-emergence action on crop (test method 3); assay type: in vivo, Hordeum vulgare, summer barley; conditions: g of AS/ha: (A) 90, (B) 1200, (C) 90, mixture 90 + 1200
Method: as §1
as §2, with “group. […]” for “group.”

STEME [7] = assay: Greenhouse trial, PE application on sensitive and resistant biotypes (test method 8); assay type: in vivo, Stellaria media; conditions: g of AS/ha: (A) 90, (B) 1200, (C) 90, mixture 90 + 1200 + 90, iodosulfuron 10
Method: as §1
as §2, with “group. […]” for “group.”

LOLPE = assay: Greenhouse trial, pre-sowing application 7 days prior to sowing (test method 5); assay type: in vivo, Lolium perenne; conditions: g of AS/ha: (A) 90, (B) 1200, (C) 90, mixture 90 + 1200
Method: as §1
as §2, with “group. […]” for “group.”

For `CCC(CC)Nc1c([N+](=O)[O-])cc(C)c(C)c1[N+](=O)[O-]` [(B) pendimethalin, N-(1-ethylpropyl)-3,4-dimethyl-2,6-dinitrobenzenamine], the “activity STEME IU soil (visual, scale 0-100%)” value (STEME [1]; IU soil) was 85%, the “Difference of the soil types, STEME” value (STEME [1]; IU/EC73 soil versus IU soil) was −30% and the “activity STEME IU/EC73 soil (visual, scale 0-100%)” value (STEME [1]; IU/EC73 soil) was 55%. For the same molecule, the “activity STEME (visual, scale 0-100%)” value (STEME [2]) was 30%, the “activity on crop plant HORVS (visual, scale 0-100%)” value (HORVS [3]) was 30% and the “activity AVEFA (visual, scale 0-100%)” value (AVEFA [4]; irrigation from above) was 80%. The “activity AVEFA (visual, scale 0-100%)” value (AVEFA [4]; irrigation from below) was 40%, the “activity on crop plant TRZAW 5 mm (visual, scale 0-100%)” value (TRZAW; sowing depth 5 mm) was 45% and the “activity on crop plant TRZAW 20 mm (visual, scale 0-100%)” value (TRZAW; sowing depth 20 mm) was 10%. For the same molecule, the “activity AVEFA (visual, scale 0-100%)” value (AVEFA [5]) was 40%, the “activity MATCH IU soil (visual, scale 0-100%)” value (MATCH; IU soil) was 10% and the “Difference of the soil types, MATCH” value (MATCH; IU/EC73 soil versus IU soil) was −10%. For the same molecule, the “activity MATCH IU/EC73 soil (visual, scale 0-100%)” value (MATCH; IU/EC73 soil) was 0%, the “activity on crop plant HORVS (visual, scale 0-100%)” value (HORVS [6]) was 50% and the “activity STEME resistant (visual, scale 0-100%)” value (STEME [7]; resistant biotype) was 10%. For the same molecule, the “activity STEME sensitive (visual, scale 0-100%)” value (STEME [7]; sensitive biotype) was 70% and the “activity LOLPE (visual, scale 0-100%)” value (LOLPE) was 80%.
